From patent US20120052126A1, “Nanoemulsions Containing Antioxidants And Other Health-Promoting Compounds” (priority 2010, published 2012) come the findings set out here.

The assay deals with MDA production (lipid peroxidation) in brain tissue. Kind of assay: Malonaldehyde (MDA) production in mouse brain after oral administration and sleep fragmentation. The class given is in vivo, mice. To be noted: gavage once a day for 120 days, then 15 days sleep fragmentation, brain cortex, MDA expressed as fold increase. The source says: Male adult mice were obtained having either the human APOE ε4 allele (targeted replacement, n=42) or wild type allele (n=42). […] Administration was by gavage once a day for 120 days. After this period, the subject mice underwent sleep fragmentation (SF) for 15 days. The SF device exposes freely behaving mice in a standard laboratory cage to intermittent tactile stimulation utilizing a motorized mechanical device. Tactile stimulation is produced by a horizontal bar powered by an electrical motor system, which sweeps just above the cage floor from side to side at intermittent functioning mode (2 min). During the […] motion, mice may need to step over the […] passes. Chronic SF may induce inflammatory responses and oxidative stress. After 15 days of SF, the mice were sacrificed and the brain dissected out for MDA and 8-OHdG assays, which are produced by the brain in response to oxidative stress and inflammatory events. MDA production is an indicator of lipid peroxidation. After the mice were sacrificed, an LPO-586 kit (OxisResearch, Portland Oreg.) was used according to the manufacturer's instructions to measure MDA levels in the brain tissue. The animals were anesthetized with CO2 inhalation then decapitated, and the cortex were dissected, snap frozen in liquid nitrogen, and stored at -80° C. until assay the following day. Neuronal tissues were homogenized in 20 mM phosphate buffer (pH 7.4) containing 0.5 mM butylated hydroxytoluene to prevent sample oxidation. […] The samples were then centrifuged and clear supernatants measured at 586 nm. MDA production was then calculated per the standard curve according to the manufacturer's instructions. The relative levels of lipid peroxidation were expressed in fold increase in MDA production.

Turning to `Cc1c(C)c2c(c(C)c1O)CC[C@@](C)(CCC[C@H](C)CCC[C@H](C)CCCC(C)C)O2` [vitamin E (SW), vitamin E], the “MDA production, Diff of Means” value (MDA-Wild Type mice) is 0.489. For `O=C(O)CCCCC1CCSS1` (stereo not drawn) [lipoic acid (SW), lipoic acid], the “MDA production, Diff of Means” value by setting is: (MDA-APOE ε4 allele mice (human APOE ε4 targeted replacement)) 0.663; (MDA-Wild Type mice) 0.46.
